Measured values reported in patent US12583823B2, “Crystal form of Daprodustat, preparation method therefor and use thereof” (priority 2019, dated 2026).

Test: Saturation solubility in water (HPLC)
Format: physicochemical
Settings: for Saturation solubility: stirring at room temperature for 12 h, HPLC
From the text: Test product: the crystal form M, crystal form CS1, crystal form CS9 and crystal form K of the compound of the formula (I), preparation methods thereof being respectively shown in Example 1, Comparative example 1, Comparative example 2 and Comparative example 3.
The operating conditions of HPLC were as follows: • Instrument: high performance liquid chromatograph (model: Thermo U3000) • Chromatographic column: Agilent C18 column (5 μm, 150 mm×4.6 mm) • Mobile phase composition and gradient elution procedure:
• Detection wavelength: 260.4 nm • Flow rate: 1 mL/min • Injection volume: 15 μL • Column temperature: 30° C.

| Structure (SMILES) | Saturation solubility | Saturation solubility compared with those of the crystal form K, the crystal form CS1 and the crystal form CS9 (result in words) |
| --- | --- | --- |
| O=C(O)CNC(=O)C1C(=O)N(C2CCCCC2)C(=O)N(C2CCCCC2)C1=O [Crystal form CS1, N-[(1,3-dicyclohexylhexahydro-2,4,6-trioxo-5-pyrimidinyl)carbonyl]glycine, reference compound] | 24.48 µg/mL | – |
| O=C(O)CNC(=O)C1C(=O)N(C2CCCCC2)C(=O)N(C2CCCCC2)C1=O [Crystal form CS9, N-[(1,3-dicyclohexylhexahydro-2,4,6-trioxo-5-pyrimidinyl)carbonyl]glycine, reference compound] | 19.4 µg/mL | – |
| O=C(O)CNC(=O)C1C(=O)N(C2CCCCC2)C(=O)N(C2CCCCC2)C1=O [Crystal form K, N-[(1,3-dicyclohexylhexahydro-2,4,6-trioxo-5-pyrimidinyl)carbonyl]glycine] | 23.36 µg/mL | – |
| O=C(O)CNC(=O)C1C(=O)N(C2CCCCC2)C(=O)N(C2CCCCC2)C1=O [Crystal form M, N-[(1,3-dicyclohexylhexahydro-2,4,6-trioxo-5-pyrimidinyl)carbonyl]glycine] | 42.47 µg/mL | significantly higher |
